From patent US9907795B2, “Method of treatment of chronic cough administering orvepitant in combination with other therapeutic agents” (NeRRe Therapeutics Limited, priority 2016, dated 2018)
Structures can show the parent of a compound that is named as a salt.

Assays:
Assay type in all cases: in vivo, human
[1] = test system: patients with a diagnosis of chronic treatment-refractory cough; test: Objective cough frequency by ambulatory cough monitor, open-label pilot study; conditions: for daytime objective cough frequency, mean change from Baseline: Week 4 (end of treatment) vs Baseline, 30 mg once daily, p<0.001, primary endpoint
Method: (§1) Orvepitant maleate Form 1 was evaluated in an open-label pilot study to determine the efficacy of multiple dosing in male and female patients with a diagnosis of chronic treatment-refractory cough for over 3 months. The study was a single-arm (30 mg orvepitant maleate Form 1 once daily), 4-week study with a 4 week follow-up. There were five scheduled clinic visits; Screening visit, Baseline visit, Week 1 visit, Week 4 visit (end of treatment period) and a Week 8 Follow-up visit. The following instruments were used to assess efficacy: • Subjects were fitted with an ambulatory cough monitor (ACM) to record objective cough frequency over 24 hours at Screening, Weeks 1, 4 and 8 • Cough-specific Quality of Life Questionnaire (CQLQ): Subjects were asked to complete this questionnaire at Screening, Weeks 1, 4 and 8 • Global Rating of Change for Cough Frequency & Severity Scale: Subjects were asked to complete this scale at Weeks 1, 4 and 8 • Cough Severity VAS: Subjects were issued with diaries for daily recording of Cough Severity VAS scores. 13 subjects were enrolled into the study and provided data on cough frequency, Cough QOL, Global Rating of Change for Cough Frequency and Severity, and Cough Severity VAS, but one of the 13 subjects had data missing on cough frequency (day and night) at week 4. The primary endpoint was change in objective daytime cough frequency at the end of the treatment period at Week 4 compared to Baseline.

[2] = test system: patients with a diagnosis of chronic treatment-refractory cough; test: Cough-specific Quality of Life Questionnaire (CQLQ), open-label pilot study
Method: as §1, with “4.” for “4. The primary endpoint was change in objective daytime cough frequency at the end of the treatment period at Week 4 compared to Baseline.”

[3] = test system: patients with a diagnosis of chronic treatment-refractory cough; test: Global Rating of Change for Cough Frequency & Severity Scale, open-label pilot study
Method: as §1, with “4.” for “4. The primary endpoint was change in objective daytime cough frequency at the end of the treatment period at Week 4 compared to Baseline.”

[4] = test system: patients with a diagnosis of chronic treatment-refractory cough; test: Cough Severity VAS (daily diary), open-label pilot study
Method: as §1, with “4.” for “4. The primary endpoint was change in objective daytime cough frequency at the end of the treatment period at Week 4 compared to Baseline.”

**Q.** For `Cc1cc(F)ccc1[C@H]1C[C@@H](N2CCN3C(=O)CC[C@H]3C2)CCN1C(=O)N(C)[C@H](C)c1cc(C(F)(F)F)cc(C(F)(F)F)c1` [Orvepitant maleate Form 1, 2-(R)-(4-Fluoro-2-methyl-phenyl)-4-(S)-((8aS)-6-oxo-hexahydro-pyrrolo[1,2-α]-pyrazin-2-yl)-piperidine-1-carboxylic acid [1-(R)-(3,5-bis-trifluoromethyl-phenyl)-ethyl]-methylamide maleate], which “reduction in mean night-time objective cough frequency” value (“reduction” for short) ([1]; Week 1 vs Baseline, p=0.19) is on record?
**A.** no significant reduction

**Q.** And the “daytime objective cough frequency, mean change from Baseline” value ([1]; negative binomial regression model)?
**A.** −18.9 coughs/hr

**Q.** What about the “daytime objective cough frequency, mean change from Baseline” value [1] of the same compound?
**A.** −26%

**Q.** What about the “reduction” value ([1]; Week 4 vs Baseline, p=0.65) of the same compound?
**A.** no significant reduction

**Q.** And the “change in daytime objective cough frequency” value ([1]; Week 8 compared to Week 4, p=0.86)?
**A.** no significant change

**Q.** What about the “reduction” value ([1]; between Weeks 4 and 8, p=0.10) of the same compound?
**A.** no significant reduction

**Q.** And the “CQLQ Overall score, mean change from Baseline” value (“CQLQ Overall score, mean change” below) ([2]; Week 1, p<0.001)?
**A.** −4.0

**Q.** And the “CQLQ Overall score, mean change” value ([2]; Week 4, p=0.005)?
**A.** −4.4

**Q.** And the “CQLQ Overall score, mean change” value ([2]; Week 8, p=0.033)?
**A.** −3.4

**Q.** What about the “CQLQ Extreme Physical domain, change from Baseline” value ([2]; Weeks 1, 4 and 8) of the same compound?
**A.** significant changes from Baseline

**Q.** What about the “CQLQ Psychosocial domain, change from Baseline” value ([2]; Weeks 1, 4 and 8) of the same compound?
**A.** significant changes from Baseline

**Q.** And the “CQLQ Overall score, difference” value ([2]; between Weeks 4 and 8, p=0.52)?
**A.** no significant difference

**Q.** What about the “CQLQ, any of the domains, change” value ([2]; from Week 4 to Week 8) of the same compound?
**A.** no significant changes

**Q.** What about the “CQLQ Emotional domain, change” value ([2]; in vivo) of the same compound?
**A.** No significant changes

**Q.** And the “Global Rate of Change, cough frequency: subjects who felt worse” value ([3]; Week 1)?
**A.** No subjects felt worse

**Q.** And the “Global Rate of Change, cough severity: subjects who felt worse” value ([3]; Week 1)?
**A.** No subjects felt worse

**Q.** And the “Global Rate of Change, cough frequency: median improvement score” value ([3]; Week 1, 3 = somewhat better)?
**A.** 3

**Q.** What about the “Global Rate of Change, cough severity: median improvement score” value ([3]; Week 1, 4 = moderately better) of the same compound?
**A.** 4

**Q.** And the “Global Rate of Change, cough frequency: subjects who felt worse” value ([3]; Week 4)?
**A.** No subjects felt worse

**Q.** What about the “Global Rate of Change, cough severity: subjects who felt worse” value ([3]; Week 4) of the same compound?
**A.** No subjects felt worse

**Q.** What about the “Global Rate of Change, cough frequency: median improvement score” value ([3]; Week 4, 3 = somewhat better) of the same compound?
**A.** 3

**Q.** And the “Global Rate of Change, cough severity: median improvement score” value ([3]; Week 4, 3 = somewhat better)?
**A.** 3

**Q.** What about the “night-time cough severity VAS, average change from Baseline” value ([4]; Week 1 of study, p=0.01) of the same compound?
**A.** −14%

**Q.** What about the “daytime cough severity VAS, average change from Baseline” value ([4]; Week 2 of study, p=0.002) of the same compound?
**A.** −39%

**Q.** And the “daytime cough severity VAS, average change from Baseline” value ([4]; Week 6 of study, p=0.001)?
**A.** −14%

**Q.** And the “night-time cough severity VAS, average change from Baseline” value ([4]; Week 6 of study, p=0.017)?
**A.** −18%
